Measured values: patent US5952321A, “Substituted azetidinones as anti-inflammatory and antidegenerative agents” (Merck & Co., Inc., priority 1996, dated 1999)
Like-named read-outs stand apart in the source and are kept apart here.

Biological target: T1, Human Polymorphonuclear Leukocyte Elastase (Homo sapiens, UniProt P08246)
T1 sequence (P08246 30-267): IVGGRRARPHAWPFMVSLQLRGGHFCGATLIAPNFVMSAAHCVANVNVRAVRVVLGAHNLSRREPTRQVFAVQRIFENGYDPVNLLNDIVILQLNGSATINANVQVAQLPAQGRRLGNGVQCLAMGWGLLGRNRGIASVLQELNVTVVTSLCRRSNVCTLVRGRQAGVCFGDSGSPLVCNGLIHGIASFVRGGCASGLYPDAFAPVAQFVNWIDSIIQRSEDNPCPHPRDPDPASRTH
Assay: Inhibition of human polymorphonuclear leukocyte elastase via hydrolysis of Boc-AAPAN or Boc-AAPVN
Format: biochemical
Conditions: second order rate constant for inactivation of the enzyme, read-out: Kobs /[I]
Description: Enzyme Assays for the Inhibition of Human Polymorphonuclear Leukocyte Elastase Via Hydrolysis of N-t-Boc-alanyl-alanyl-prolylalanine-p-nitroanilide (Boc-AAPAN) or […] (Boc-AAPVN) Reagent:
0.05M TES (N-tris[hydroxymethyl]methyl-2-amino-ethanesulfonic acid) Buffer, pH 7.5.
0.2 mM Boc-AAPAN or Boc-AAPVN.
To prepare substrate, the solid was first dissolved in 10.0 ml DMSO. Buffer at pH 7.5 was then added to a final volume of 100 ml.
Crude extract of human polymorphonuclear leukocytes (PMN) containing elastase activity.
Inhibitors (azetidinones) to be tested dissolved in DMSO just before use.
To 1.0 ml of 0.2 mM Boc-AAPAN in a cuvette, 0.01-0.1 ml of DMSO with or without inhibitor was added. After mixing, a measurement was taken at 410 mμ to detect any spontaneous hydrolysis due to presence of test compound. 0.05 Milliliters of PMN extract was then added and the ΔOD/min at 410 mμ was measured and recorded. Beckman model 35 spectrophotometer was used.
Results in Tables I to III were reported as ID50, effective dosage in micrograms per milliliter (μg/ml) for 50% inhibition of the enzyme activity 2 minutes after zero time.
Results were also expressed as Ki, the micromolar concentration of the inhibitor (μM) giving 50% of the control enzyme activity; or as ^k obs/I which is the second order rate constant in per mole per second for inactivation of the enzyme.
The elastase activity in the crude PMN extract may vary from one preparation to another. A control of each new batch is run, and the volume added in the assay procedure is adjusted according to activity.

| Compound | kinact/KI (pH 7.5, Table I) | also measured |
| --- | --- | --- |
| CCC[C@@H](NC(=O)N1C(=O)C(CC)(CC)[C@@H]1Oc1cc(C)c(CN(C)CCOC)c(C)c1)c1ccc(C)cc1 | – | kinact/KI (pH 7.5, Table III): 300000 M⁻¹ s⁻¹ |
| CCC[C@@H](NC(=O)N1C(=O)C(CC)(CC)[C@@H]1Oc1ccc(CN(C)CCOc2ccccc2)cc1)c1ccc(C)cc1 [R4=Me; R5=CH2 CH2 OPh; R6=H] | 750000 M⁻¹ s⁻¹ | – |
| CCC[C@@H](NC(=O)N1C(=O)C(CC)(CC)[C@@H]1Oc1ccc(CN2CCN(C(C)C)CC2)cc1)c1ccc(C)cc1 [R4+R5=--CH2 CH2 N(i-Pr)CH2 CH2 --; R6=H] | 1.2e+06 M⁻¹ s⁻¹ | – |
| CCC[C@@H](NC(=O)N1C(=O)C(CC)(CC)[C@@H]1Oc1ccc(CNC(=O)Cc2cccnc2)cc1)c1ccc(C)cc1 [R4=H; R5=COCH2-3-pyridyl; R6=H, (4S)-3,3-Diethyl-1-[(R)-α-(n-propyl)-4-(methyl)benzylaminocarbonyl]-4-[(4-((3-pyridyl)methylcarbonyl)aminomethyl)phenoxy]azetidin-2-one] | 1.25e+06 M⁻¹ s⁻¹ | – |
| CCC[C@@H](NC(=O)N1C(=O)C(CC)(CC)[C@@H]1Oc1ccc(CCCN(CC)CC)cc1)c1ccc(C)cc1 [R4=Et; R5=Et; n=3] | – | kinact/KI (pH 7.5, Table II): 540000 M⁻¹ s⁻¹ |
| CCC[C@@H](NC(=O)N1C(=O)C(CC)(CC)[C@@H]1Oc1ccc(C2CCCN2CCOC)cc1)c1ccc(C)cc1 (mixture of isomers) [R4=CH2 CH2 OMe; R5+R6=--CH2 CH2 CH2 --, 3,3-Diethyl-1-[(R)-α-(n-propyl)-4-(methyl)benzylaminocarbonyl]-4-(S)-[4-{2-(RS)-(N-(2-methoxyethyl)pyrrolidino)}phenoxy]azetidin-2-one] | 940000 M⁻¹ s⁻¹ | – |
| CCC[C@@H](NC(=O)N1C(=O)C(CC)(CC)[C@@H]1Oc1ccc(CN(CC)CCOCCOC)c(OC)c1)c1ccc(C)cc1 | – | kinact/KI (pH 7.5, Table III): 1.7e+06 M⁻¹ s⁻¹ |
| CCC[C@@H](NC(=O)N1C(=O)C(CC)(CC)[C@@H]1Oc1ccc(CCN(C)C)cc1)c1ccc(C)cc1 [R4=Me; R5=Me; n=2, (4S)-3,3-Diethyl-1-[(R)-α-n-propyl-(4-methyl)benzylaminocarbonyl]-4-[(4-(2-dimethylamino)ethyl)phenoxy]azetidin-2-one] | – | kinact/KI (pH 7.5, Table II): 1.13e+06 M⁻¹ s⁻¹ |
| CCC[C@@H](NC(=O)N1C(=O)C(CC)(CC)[C@@H]1Oc1ccc(CN2CCN(C(=O)N(C)C)CC2)cc1)c1ccc(C)cc1 [(4S)-3,3-Diethyl-1-[(R)-α-n-propyl-(4-methyl)benzylaminocarbonyl]-4-[(4-((4-dimethylaminocarbonyl)piperazin-1-yl)methyl)phenoxy]azetidin-2-one] | 1.55e+06 M⁻¹ s⁻¹ | – |
| CCC[C@@H](NC(=O)N1C(=O)C(CC)(CC)[C@@H]1Oc1ccc(C(C)N(C)CCOC(=O)N(C)C)cc1)c1ccc(C)cc1 (some centres unmarked) [R4=Me; R5=CH2 CH2 OCONMe2; R6=Me] | 925000 M⁻¹ s⁻¹ | – |
| CCC[C@@H](NC(=O)N1C(=O)C(CC)(CC)[C@@H]1Oc1ccc(CN(C)CC2CCCCO2)cc1)c1ccc(C)cc1 (some centres unmarked) | 900000 M⁻¹ s⁻¹ | – |
| CCC[C@@H](NC(=O)N1C(=O)C(CC)(CC)[C@@H]1Oc1ccc(CN2CCN(C(=O)N(C)C)CC2)cc1)c1ccc2c(c1)OCO2 [(4S)-3,3-Diethyl-1-[(R)-α-n-propyl-3,4-methylenedioxy)benzylaminocarbonyl]-4-[(4-((4-diemthylaminocarbonyl)piperazin-1-yl)methyl)phenoxy]azetidin-2-one] | – | kinact/KI (pH 7.5, Table III): 4e+06 M⁻¹ s⁻¹ |
| CCC[C@@H](NC(=O)N1C(=O)C(CC)(CC)[C@@H]1Oc1ccc(C(COC)N(C)C)cc1)c1ccc2c(c1)OCO2 (mixture of isomers) [3,3-Diethyl-1-[(R)-α-(n-propyl)-(3,4-dioxomethylene)benzylaminocarbonyl]-4-(S)-[4-{1-(RS)-(N,N-dimethylamino)-2-methoxyethyl}phenoxy]azetidin-2-one] | – | kinact/KI (pH 7.5, Table III): 1.9e+06 M⁻¹ s⁻¹ |
| CCC[C@@H](NC(=O)N1C(=O)C(CC)(CC)[C@@H]1Oc1ccc(Cn2ccnc2)cc1)c1ccc(C)cc1 [R4+R5=--CHCHNCH--; R6=H] | 1.6e+06 M⁻¹ s⁻¹ | – |
| CCC[C@@H](NC(=O)N1C(=O)C(CC)(CC)[C@@H]1Oc1ccc(CN2CCC(O)C2)cc1)c1ccc(C)cc1 (some centres unmarked) [R4+R5=--CH2 CH2 CH(OH)CH2 --; R6=H] | 1.2e+06 M⁻¹ s⁻¹ | – |

Further lines, with some results ahead:

| kinact/KI (pH 7.5, Table I) | Compound | also measured |
| --- | --- | --- |
| 820000 M⁻¹ s⁻¹ | CCC[C@@H](NC(=O)N1C(=O)C(CC)(CC)[C@@H]1Oc1ccc(CN(CCOC)CCOC)cc1)c1ccc(C)cc1 [R4=CH2 CH2 OMe; R5=CH2 CH2 OMe; R6=H] | – |
| 850000 M⁻¹ s⁻¹ | CCC[C@@H](NC(=O)N1C(=O)C(CC)(CC)[C@@H]1Oc1ccc(CNC(=O)CCN(CC)CC)cc1)c1ccc(C)cc1 [R4=H; R5=COCH2 CH2 N Et2; R6=H] | – |
| 1.4e+06 M⁻¹ s⁻¹ | CCC[C@@H](NC(=O)N1C(=O)C(CC)(CC)[C@@H]1Oc1ccc(CN(C)CC[S+]([O-])CC)cc1)c1ccc(C)cc1 (stereo partly drawn) [R4=Me; R5=CH2 CH2 SOEt; R6=H, (4S)-3,3-Diethyl-1-[(R)-α-n-propyl-(4-methyl)benzylaminocarbonyl]-4-[(4-((2-thioethyl)ethyl)methylaminomethyl)phenoxy]azetidin-2-one, S-oxide] | – |
| 850000 M⁻¹ s⁻¹ | CCC[C@@H](NC(=O)N1C(=O)C(CC)(CC)[C@@H]1Oc1ccc(CN(CC)CCNC(C)=O)cc1)c1ccc(C)cc1 [R4=Et; R5=CH2 CH2 NHAc; R6=H] | – |
| 525000 M⁻¹ s⁻¹ | CCC[C@@H](NC(=O)N1C(=O)C(CC)(CC)[C@@H]1Oc1ccc([C@@H](C)N(C)CCOC)cc1)c1ccc(C)cc1 [R4=Me; R5=CH2 CH2 OMe; R6=(R)--Me, (4S)-3,3-diethyl-4-{(R)-4-[1-((2-methoxyethyl)methylamino)ethyl]phenoxy}-1-[(R)-α-n-propyl-(4-methyl)benzylaminocarbonyl]azetidin-2-one] | – |
| 750000 M⁻¹ s⁻¹ | CCC[C@@H](NC(=O)N1C(=O)C(CC)(CC)[C@@H]1Oc1ccc(CNC(C)=O)cc1)c1ccc(C)cc1 [R4=H; R5=Ac; R6=H, (4S)-3,3-Diethyl-1-[(R)-α-(n-propyl)-4-(methyl)benzylaminocarbonyl]-4-[(4-(N-acetyl)aminomethyl)phenoxy]azetidin-2-one] | – |
| 680000 M⁻¹ s⁻¹ | CCC[C@@H](NC(=O)N1C(=O)C(CC)(CC)[C@@H]1Oc1ccc(C(C)NCCOC)cc1)c1ccc(C)cc1 (some centres unmarked) [R4=H; R5=CH2 CH2 OMe; R6=Me] | – |
| 675000 M⁻¹ s⁻¹ | CCC[C@@H](NC(=O)N1C(=O)C(CC)(CC)[C@@H]1Oc1ccc(CN(C)CCSC)cc1)c1ccc(C)cc1 [R4=Me; R5=CH2 CH2 SMe; R6=H] | – |
| 550000 M⁻¹ s⁻¹ | CCC[C@@H](NC(=O)N1C(=O)C(CC)(CC)[C@@H]1Oc1ccc(C(CC)N(C)CCOC)cc1)c1ccc(C)cc1 (some centres unmarked) [R4=Me; R5=CH2 CH2 OMe; R6=Et] | – |
| 825000 M⁻¹ s⁻¹ | CCC[C@@H](NC(=O)N1C(=O)C(CC)(CC)[C@@H]1Oc1ccc(C(C)N(C)CCOCCOC)cc1)c1ccc(C)cc1 (some centres unmarked) [R4=Me; R5=CH2 CH2 OCH2 CH2 OMe; R6=Me] | – |
| 700000 M⁻¹ s⁻¹ | CCC[C@@H](NC(=O)N1C(=O)C(CC)(CC)[C@@H]1Oc1ccc(CN(C)CCOC(=O)NC)cc1)c1ccc(C)cc1 [R4=Me; R5=CH2 CH2 OCONHMe; R6=H] | – |
| 1.28e+06 M⁻¹ s⁻¹ | CCC[C@@H](NC(=O)N1C(=O)C(CC)(CC)[C@@H]1Oc1ccc(C(COC)N(C)C)cc1)c1ccc(C)cc1 (mixture of isomers) [R4=Me; R5=Me; R6=CH2 OMe, 3,3-Diethyl-1-[(R)-α-(n-propyl)-4-(methyl)benzylaminocarbonyl]-4-(S)-[4-{1-(RS)-(N,N-dimethylamino)-2-methoxyethyl}phenoxy]azetidin-2-one] | – |
| 2.1e+06 M⁻¹ s⁻¹ | CCC[C@@H](NC(=O)N1C(=O)C(CC)(CC)[C@@H]1Oc1ccc(CN(C)CCCOC(=O)N(C)C)cc1)c1ccc(C)cc1 [R4=Me; R5=CH2 CH2 CH2 OCONMe2; R6=H] | – |
| 670000 M⁻¹ s⁻¹ | CCC[C@@H](NC(=O)N1C(=O)C(CC)(CC)[C@@H]1Oc1ccc(CN(CC)C(C)COC)cc1)c1ccc(C)cc1 (some centres unmarked) [R4=Et; R5=CH(Me)CH2 OMe; R6=H] | – |
